Test results taken from article PMC6719172, “Inhibition of CpLIP2 Lipase Hydrolytic Activity by Four Flavonols (Galangin, Kaempferol, Quercetin, Myricetin) Compared to Orlistat and Their Binding Mechanisms Studied by Quenching of Fluorescence” (Molecules, 2019).

Experiments:
[1] = molecular target: T1, CpLIP2 lipase (Candida parapsilosis, UniProt Q8NIN8); experiment: Quenching of CpLIP2 intrinsic tryptophan fluorescence by flavonols (Stern–Volmer, Lehrer, van't Hoff analysis); assay type: binding; conditions: for KSV (Stern–Volmer quenching constant): CpLIP2 2.5 µM, pH 7.0, flavonol 2.5–25 µM (GAL 2.5–17.5 µM); for Kq (bimolecular quenching constant): Kq = KSV/τ0, τ0 1.59 ns; for KSV (accessible), Stern–Volmer quenching constant of the exposed W residues / fa (fraction of accessible W residues to the quencher): Lehrer equation; for ΔG (free energy change): ΔG = ΔH − TΔS; for Kd: Kd (dissociation constant)
T1 sequence (Q8NIN8 entry or part of it): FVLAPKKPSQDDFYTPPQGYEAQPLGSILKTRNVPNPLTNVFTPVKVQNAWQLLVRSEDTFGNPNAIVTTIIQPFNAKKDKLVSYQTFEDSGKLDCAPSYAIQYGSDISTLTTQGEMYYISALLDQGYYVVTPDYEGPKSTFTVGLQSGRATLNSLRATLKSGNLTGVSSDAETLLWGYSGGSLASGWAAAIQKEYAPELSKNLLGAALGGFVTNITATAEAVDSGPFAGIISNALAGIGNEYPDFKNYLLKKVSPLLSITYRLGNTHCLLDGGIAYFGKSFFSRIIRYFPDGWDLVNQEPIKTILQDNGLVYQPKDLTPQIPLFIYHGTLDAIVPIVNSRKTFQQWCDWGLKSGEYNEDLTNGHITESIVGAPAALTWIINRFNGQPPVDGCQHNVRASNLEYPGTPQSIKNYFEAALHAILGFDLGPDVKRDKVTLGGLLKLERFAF
From the text: The fluorescence quenching spectra of CpLIP2 lipase submitted to increasing concentrations of GAL, KAE, QUE and MYR are shown in Figure 3. A remarkable quenching of the CpLIP2 fluorescence emission was observed. […] The fluorescence quenching is usually described by the linear Stern–Volmer Equations (2) and (3):(2) F0/F = 1 + Ksv [Q] = 1 + Kqτ0 [Q] (3) Kq=Ksv/τ0 where F0 and F are the intrinsic fluorescence intensities of CpLIP2 lipase (fluorophore) in absence or presence of quencher (flavonol), respectively. Kq is the bimolecular quenching constant, τ0 is the lifetime of the fluorophore in the absence of the quencher, [Q] is the concentration of the quencher, and KSV is the Stern–Volmer quenching constant.
The mechanism of quenching, occurring between CpLIP2 lipase and flavonols, was characterized by determining the values of Kq and the thermodynamic parameters by varying the temperature. […] In both cases, the bimolecular quenching constant Kq can be calculated by the ratio between KSV and τ0, itself determined at 1.59 ns for Human Pancreatic Lipase.
The inaccessible or buried residues are responsible for the remaining fluorescence, which is probably independent of the quencher concentration. […] An up-down curvature towards the x-axis has been shown for the four flavonols (Figure 4), indicating the presence of two populations of fluorophores, part of which would not be accessible. That means that some W residues are buried inside the lipase structure and that other residues are exposed to the solvent. Therefore, data were analyzed through the Lehrer equation, also known as the modified (or non-linear) Stern–Volmer Equation (4):(4) F0/ F0−F = 1/ fa Ksv 1/ [Q] +1/ fa
For static quenching, the equilibrium between free and bound CpLIP2 lipase, when the ligand molecules bind independently to equivalent sites of macromolecules, can be described by the following Equation (5):(5) log10F0−F/F=nlog10[Q]+log10Ka where Ka is the binding constant and n the number of binding sites per CpLIP2 molecule.
The results were determined for all flavonols tested at different temperatures from the plots of log10 F0 − F/F versus log10 [Q] and listed in Table 2. The plots show a linear relationship from which the slope equal to n and intercept on y-axis equal to log10 Ka. For the four flavonols, the Ka values increased when the temperatures increased. In addition, the n values were less than 1.0 in all cases and increased according to the temperature. […] Values of the dissociation constant of complexes were deduced from the Stern–Volmer Equation (6) and (7), for which Kd is expressed as the inverse of fa Ksv product. (6) F0/ F0−F= Kd 1/ [Q] +1 (7) Kd= 1/fa Ksv
Thermodynamic parameters were calculated to determine the type of binding forces that contribute in the CpLIP2 lipase–flavonol interactions. […] Both the enthalpy (ΔH) and entropy changes (ΔS) can be estimated from the following van′t Hoff Equation (8):(8) Ln Ka = − ΔH /RT + ΔS /R
The values of Gibbs binding free energy change (ΔG) are calculated from the following Equation (9):(9) ΔG= ΔH − TΔS
To fill up the volume of 300 µL by well, 190 µL of sodium phosphate buffer solution (75 mM, pH 7.0) was added to each well to obtain final concentration at 50 mM. Then, 100 µL of ethanol absolute–water ultrapure (2:8, v/v) solution was added to obtain a final amount of ethanol […] in the well of 300 µL. […] The final concentration of ethanol during the experiments never exceeded 0.07% (v/v). The last step was to add 10 µL of lipase after to have optimized the final concentration of CpLIP2 equal to 2.5 µM for all our assays, giving the optimal fluorescence intensity for all measurements. The measurement of intrinsic fluorescence started after mechanical shaking for 30 s inside the multi-plate reader. […]

[2] = molecular target: T1, CpLIP2 lipase; experiment: Fluorescence resonance energy transfer between CpLIP2 and flavonols (Förster theory); assay type: binding; for R0 (Förster distance): values in Å; for r (distance between acceptor and donor): values in Å
From the text: Fluorescence emission spectra of CpLIP2 lipase overlap the UV absorption spectrum of each flavonol studied, that may induce fluorescence resonance energy transfer (FRET) governed by the binding distance r between the protein behaving as energy donor and the flavonol energy acceptor. The binding distance r can be calculated via Förster theory with the following Equations (10) and (11):(10) E=1−F/ F0=R06/ R06+r^6 where E is the energy transfer efficiency, which is the photons fraction absorbed and transferred by the donor to the acceptor, F and F0 are the fluorescence intensities of donor (CpLIP2) in the presence or absence of acceptor (flavonol) at the same concentrations. The parameter r is the distance between acceptor and donor, and R0 is the Förster distance, which is the critical energy transfer distance when 50% of the excitation energy is transferred from the donor to the acceptor. […] The value of R0 ranges from 20–90 Å for biological macromolecules.

## O=c1c(O)c(-c2ccccc2)oc2cc(O)cc(O)c12 [GAL, galangin]
[1]; 298 K
  Ka (association constant): 323 ± 8 L/mol
  n (number of binding sites): 0.58 ± 0.18
  KSV (Stern–Volmer quenching constant): 2.9 ± 0.1 × 10^4 L·mol^−1
  Kq (bimolecular quenching constant): 1.8e+13 M⁻¹ s⁻¹
  KSV (accessible), Stern–Volmer quenching constant of the exposed W residues: 360000 L/mol
  fa (fraction of accessible W residues to the quencher): 0.37
  ΔG (free energy change): -20.2 kcal/mol
  Kd: 8 ± 3 µM
[1]; 308 K
  Ka (association constant): 502 ± 10 L/mol
  n (number of binding sites): 0.63 ± 0.21
  KSV (Stern–Volmer quenching constant): 2.4 ± 0.9 × 10^4 L·mol^−1
  Kq (bimolecular quenching constant): 1.5e+13 M⁻¹ s⁻¹
  KSV (accessible), Stern–Volmer quenching constant of the exposed W residues: 360000 L/mol
  fa (fraction of accessible W residues to the quencher): 0.34
  ΔG (free energy change): -20.9 kcal/mol
  Kd: 8 ± 4 µM
[1]; 318 K
  Ka (association constant): 616 ± 10 L/mol
  n (number of binding sites): 0.66 ± 0.21
  KSV (Stern–Volmer quenching constant): 2.1 ± 0.8 × 10^4 L·mol^−1
  Kq (bimolecular quenching constant): 1.3e+13 M⁻¹ s⁻¹
  KSV (accessible), Stern–Volmer quenching constant of the exposed W residues: 290000 L/mol
  fa (fraction of accessible W residues to the quencher): 0.33
  ΔG (free energy change): -21.6 kcal/mol
  Kd: 11 ± 6 µM
[1]; 328 K
  n (number of binding sites): 0.66 ± 0.04
  KSV (Stern–Volmer quenching constant): 1.5 ± 0.6 × 10^4 L·mol^−1
  Kq (bimolecular quenching constant): 1e+13 M⁻¹ s⁻¹
  KSV (accessible), Stern–Volmer quenching constant of the exposed W residues: 420000 L/mol
  fa (fraction of accessible W residues to the quencher): 0.25
  ΔG (free energy change): -22.3 kcal/mol
  Kd: 10 ± 6 µM
[1]; all temperatures of Table 1
  order of magnitude of Kq: ~10^13 L mol^−1 s^−1
[1]; van't Hoff plot, 298–328 K
  ΔS (entropy changes): 0.28 kJ·mol^−1·K^−1
[2]
  percentage of transfer efficiency: 24%
[2]; 2.5 µM, 308 K, pH 7.0
  E (energy transfer efficiency): 0.24
  J (overlap integral): 0.8 × 10^14 nm^4·cm^−1·M^−1
  R0 (Förster distance): 23.6 Å
  r (distance between acceptor and donor): 28.5 Å
  r/R0: 1.2
